Assay [1] addresses T1, Prostaglandin D2 receptor (Homo sapiens, UniProt Q13258).
T1 sequence (Q13258 whole entry): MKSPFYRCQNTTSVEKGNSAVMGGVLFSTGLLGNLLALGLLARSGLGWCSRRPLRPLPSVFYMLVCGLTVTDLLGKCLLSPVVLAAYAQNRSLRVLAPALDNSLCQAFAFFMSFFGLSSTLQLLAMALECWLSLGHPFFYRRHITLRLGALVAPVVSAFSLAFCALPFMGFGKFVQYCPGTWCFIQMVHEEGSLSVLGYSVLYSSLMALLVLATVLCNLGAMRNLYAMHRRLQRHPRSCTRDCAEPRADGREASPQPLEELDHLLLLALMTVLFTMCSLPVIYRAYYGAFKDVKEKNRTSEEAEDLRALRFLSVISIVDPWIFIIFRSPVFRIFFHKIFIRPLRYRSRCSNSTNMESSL
Kind of assay: Binding affinity to DP receptor.

For another assay, the target named is T2, Thromboxane A2 receptor (Homo sapiens, UniProt P21731).
T2 sequence (P21731 whole entry): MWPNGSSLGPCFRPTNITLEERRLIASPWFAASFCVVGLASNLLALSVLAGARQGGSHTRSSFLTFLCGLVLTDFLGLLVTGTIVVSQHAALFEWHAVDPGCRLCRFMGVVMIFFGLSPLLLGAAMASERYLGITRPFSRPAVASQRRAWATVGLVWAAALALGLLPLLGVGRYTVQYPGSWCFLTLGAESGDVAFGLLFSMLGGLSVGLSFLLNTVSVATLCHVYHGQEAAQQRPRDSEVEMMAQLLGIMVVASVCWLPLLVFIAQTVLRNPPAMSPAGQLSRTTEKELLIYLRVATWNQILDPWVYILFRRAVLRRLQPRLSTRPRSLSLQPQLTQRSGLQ
Kind of assay: Binding affinity to TP receptor.

Assay [2] addresses Prostaglandin E2 receptor EP2 subtype (Homo sapiens, UniProt P43116). Kind of assay: Binding affinity to EP2 receptor.
The target of assay [3] is T3, Prostaglandin E2 receptor EP3 subtype (Homo sapiens, UniProt P43115).
T3 sequence (P43115 whole entry): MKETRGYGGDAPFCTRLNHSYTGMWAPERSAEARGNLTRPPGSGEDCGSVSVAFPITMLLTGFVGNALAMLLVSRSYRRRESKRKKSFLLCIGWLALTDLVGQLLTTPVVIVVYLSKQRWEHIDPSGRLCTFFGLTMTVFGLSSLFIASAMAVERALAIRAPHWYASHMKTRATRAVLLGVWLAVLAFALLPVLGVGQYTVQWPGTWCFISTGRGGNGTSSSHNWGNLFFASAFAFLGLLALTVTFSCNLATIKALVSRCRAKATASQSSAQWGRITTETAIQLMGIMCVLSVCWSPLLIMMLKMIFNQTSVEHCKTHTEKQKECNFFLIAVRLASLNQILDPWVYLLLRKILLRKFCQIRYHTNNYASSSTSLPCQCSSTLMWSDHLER
Put plainly: Binding affinity to EP3 receptor.

Assay [4] addresses Prostaglandin E2 receptor EP4 subtype (Homo sapiens, UniProt P35408). Put plainly: Binding affinity to EP4 receptor.
Assay [5] deals with Prostaglandin F2-alpha receptor (Homo sapiens, UniProt P43088). Put plainly: Binding affinity to FP receptor.
Sequence of Prostaglandin F2-alpha receptor (P43088 whole entry): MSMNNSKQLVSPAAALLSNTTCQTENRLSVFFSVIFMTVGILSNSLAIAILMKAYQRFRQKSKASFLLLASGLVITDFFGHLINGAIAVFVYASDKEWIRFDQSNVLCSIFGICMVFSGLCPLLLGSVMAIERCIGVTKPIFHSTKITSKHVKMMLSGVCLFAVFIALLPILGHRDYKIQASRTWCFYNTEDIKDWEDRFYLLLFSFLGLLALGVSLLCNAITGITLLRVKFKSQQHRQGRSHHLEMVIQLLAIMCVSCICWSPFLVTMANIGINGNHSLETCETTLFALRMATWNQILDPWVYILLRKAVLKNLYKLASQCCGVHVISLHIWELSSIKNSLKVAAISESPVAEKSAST
For the next assay, the target named is Prostacyclin receptor (Homo sapiens, UniProt P43119). Put plainly: Binding affinity to IP receptor.
Sequence of Prostacyclin receptor (P43119 whole entry): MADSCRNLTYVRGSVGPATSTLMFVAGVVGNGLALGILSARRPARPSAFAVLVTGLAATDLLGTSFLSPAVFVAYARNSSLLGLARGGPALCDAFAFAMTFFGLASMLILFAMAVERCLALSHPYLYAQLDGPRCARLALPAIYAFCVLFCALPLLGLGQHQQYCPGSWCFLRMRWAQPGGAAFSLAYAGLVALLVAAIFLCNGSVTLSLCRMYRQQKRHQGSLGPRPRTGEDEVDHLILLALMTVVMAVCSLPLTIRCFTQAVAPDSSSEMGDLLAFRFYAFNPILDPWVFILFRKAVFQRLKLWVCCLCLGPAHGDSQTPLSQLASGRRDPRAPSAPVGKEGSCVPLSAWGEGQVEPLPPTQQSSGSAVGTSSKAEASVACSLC
Assay [6] deals with T1, Prostaglandin D2 receptor. Kind of assay: Activity at DP receptor assessed as inhibition of PGD2-induced cAMP accumulation in platelet. It counts as functional. On the technique in general: cAMP levels reflect the balance of adenylyl cyclase and phosphodiesterase activity.
Assay [7] addresses T1, Prostaglandin D2 receptor. Kind of assay: Activity at DP receptor assessed as inhibition of PGD2-induced cAMP accumulation in platelet rich plasma. It counts as functional.
Assay [8] concerns the target T4, Prostaglandin E2 receptor EP1 subtype (Homo sapiens, UniProt P34995).
T4 sequence (P34995 whole entry): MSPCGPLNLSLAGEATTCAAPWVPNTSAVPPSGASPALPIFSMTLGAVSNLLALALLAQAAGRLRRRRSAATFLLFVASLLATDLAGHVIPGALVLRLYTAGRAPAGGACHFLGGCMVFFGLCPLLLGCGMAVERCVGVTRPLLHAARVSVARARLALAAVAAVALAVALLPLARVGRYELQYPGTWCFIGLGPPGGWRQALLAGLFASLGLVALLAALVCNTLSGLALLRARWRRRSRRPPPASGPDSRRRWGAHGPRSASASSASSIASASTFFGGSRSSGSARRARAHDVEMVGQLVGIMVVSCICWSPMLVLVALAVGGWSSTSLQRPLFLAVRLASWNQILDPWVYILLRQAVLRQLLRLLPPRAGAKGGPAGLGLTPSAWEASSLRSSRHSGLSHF
Kind of assay: Binding affinity to EP1 receptor.

The structures appear in SMILES notation.

Sequence of Prostaglandin E2 receptor EP2 subtype (P43116 whole entry): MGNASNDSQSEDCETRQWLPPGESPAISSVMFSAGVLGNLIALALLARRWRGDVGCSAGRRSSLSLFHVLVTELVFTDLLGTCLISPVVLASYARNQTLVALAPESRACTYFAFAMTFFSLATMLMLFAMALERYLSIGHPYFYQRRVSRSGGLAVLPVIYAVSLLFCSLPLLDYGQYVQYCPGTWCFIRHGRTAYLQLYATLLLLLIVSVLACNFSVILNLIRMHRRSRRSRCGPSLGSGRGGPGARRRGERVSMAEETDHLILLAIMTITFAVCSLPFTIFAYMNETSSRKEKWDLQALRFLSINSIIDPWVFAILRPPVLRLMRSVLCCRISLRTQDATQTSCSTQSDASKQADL
Sequence of Prostaglandin E2 receptor EP4 subtype (P35408 whole entry): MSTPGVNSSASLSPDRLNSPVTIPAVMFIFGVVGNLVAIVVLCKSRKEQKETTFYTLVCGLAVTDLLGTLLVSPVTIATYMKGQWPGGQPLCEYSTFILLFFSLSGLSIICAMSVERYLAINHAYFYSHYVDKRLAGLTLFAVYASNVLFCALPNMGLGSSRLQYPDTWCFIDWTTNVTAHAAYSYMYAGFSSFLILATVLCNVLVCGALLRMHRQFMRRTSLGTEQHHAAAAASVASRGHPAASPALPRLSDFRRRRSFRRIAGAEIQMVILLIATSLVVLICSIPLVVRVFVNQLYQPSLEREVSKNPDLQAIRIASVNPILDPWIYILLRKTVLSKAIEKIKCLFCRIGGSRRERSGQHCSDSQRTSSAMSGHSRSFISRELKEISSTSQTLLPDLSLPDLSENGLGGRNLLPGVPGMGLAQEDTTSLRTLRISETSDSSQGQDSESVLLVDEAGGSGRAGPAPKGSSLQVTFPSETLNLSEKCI

Take `CC(C)[S+]([O-])c1cccc2c3c(n(Cc4ccc(Cl)cc4)c12)C(CC(=O)O)CCC3` (stereo not drawn): the figures for the Ki (in assay [1]; at Thromboxane A2 receptor) were 23 nM and 1800 nM, respectively.

In the case of `O=C(O)CC1CCCc2c1n(Cc1ccc(Cl)cc1)c1c(Br)cccc21` (stereo not drawn), the Ki (commonly the dissociation constant of the complex between target and ligand, obtained from inhibition or displacement) in [1] stood at 2.6 nM; on Thromboxane A2 receptor, 2.2 nM.

`CS(=O)(=O)c1ccc(Cn2c3c(c4cc(S(C)(=O)=O)cc(Br)c42)CCC3CC(=O)O)cc1` (stereo not drawn): the values for the inhibition constant (Ki) (in assay [1]; at Thromboxane A2 receptor) were 1900 nM and 2700 nM, respectively.

Turning to `O=C(O)CC1CCCc2c1n(Cc1ccc(Cl)cc1)c1c([S+]([O-])Cc3ccccc3)cccc21` (stereo not drawn), the Ki in assay [1] was determined as 3.9 nM; at Thromboxane A2 receptor, 140 nM.

In the case of `CN(C)S(=O)(=O)c1ccc2c(c1)c1c(n2Cc2ccc(Cl)cc2)C(CC(=O)O)CC1` (stereo not drawn), the Ki was 1100 nM in assay [1] and 2300 nM on Thromboxane A2 receptor.

As to `CC[S+]([O-])c1cccc2c3c(n(Cc4ccc(Cl)cc4)c12)C(CC(=O)O)CCC3` (stereo not drawn), the figures for the Ki (in assay [1]; on Thromboxane A2 receptor) were 4 nM and 340 nM, respectively.

Take `C[S+]([O-])c1cccc2c3c(n(Cc4ccc(Cl)cc4)c12)C(CC(=O)O)CCC3` (stereo not drawn): the values for the Ki (in [1]; at Thromboxane A2 receptor) were 2.8 nM and 172 nM, respectively.

For `CSc1cccc2c3c(n(Cc4ccc(Cl)cc4)c12)C(CC(=O)O)CCC3` (stereo not drawn), the Ki in [1] was found to be 1 nM; on Thromboxane A2 receptor it was 2.6 nM.

`CC(=O)c1cc(S(C)(=O)=O)cc2c3c(n(Cc4ccc(Cl)cc4)c12)C(CC(=O)O)CC3` (stereo not drawn): the Ki was 9.5 nM in [1] and 3600 nM on Thromboxane A2 receptor.

For `O=C(O)CC1CCCc2c1n(Cc1ccc(Cl)cc1)c1c([S+]([O-])c3ccccc3)cccc21` (stereo not drawn), the Ki was determined as 29 nM in [1] and 96 nM at Thromboxane A2 receptor.

As for `CC(O)c1cc(S(C)(=O)=O)cc2c3c(n(Cc4ccc(Cl)cc4)c12)[C@@H](CC(=O)O)CC3` (stereo partly drawn), the Ki in assay [2] was 390 nM; in assay [3], > 20000 nM; in [4], > 2900 nM; in assay [5], > 20000 nM; on Prostacyclin receptor, > 20000 nM; in assay [1], 1.8 nM. The results for the Ki (on Thromboxane A2 receptor; in assay [8]) were 7100 nM and > 20000 nM, respectively. The IC50 (as a rule, the concentration at which inhibition is half-maximal) was 2 nM in assay [6] and 8.6 nM in assay [7].

As for `CS(=O)(=O)c1cc(C2CCCCC2)c2c(c1)c1c(n2Cc2ccc(Cl)cc2)C(CC(=O)O)CC1` (stereo not drawn), the Ki was found to be 2.8 nM in assay [1] and 330 nM on Thromboxane A2 receptor.

Take `O=Cc1cccc2c3c(n(Cc4ccc(Cl)cc4)c12)C(CC(=O)O)CCC3` (stereo not drawn): the Ki in [1] turned out to be 6.3 nM; on Thromboxane A2 receptor, 6.6 nM.

Turning to `CC(O)c1cc(S(C)(=O)=O)cc2c3c(n(Cc4ccc(Cl)cc4)c12)C(CC(=O)O)CC3` (stereo not drawn), the values for the Ki (in assay [1]; on Thromboxane A2 receptor) were 8.5 nM and 16000 nM, respectively.

`CS(=O)(=O)c1ccc2c(c1)c1c(n2Cc2ccc(Cl)cc2)C(CC(=O)O)CC1` (stereo not drawn): the Ki in assay [1] is 300 nM; at Thromboxane A2 receptor, 2100 nM.

For the compound `O=C(O)CC1CCCc2c1n(Cc1ccc(Cl)cc1)c1c(C(=O)Nc3ccccc3)cccc21` (stereo not drawn), the values for the Ki (in [1]; at Thromboxane A2 receptor) were 110 nM and 88 nM, respectively.

With `O=C(O)CC1CCCc2c1n(Cc1ccc(Cl)cc1)c1ccccc21` (stereo not drawn), the figures for the Ki (in assay [1]; at Thromboxane A2 receptor) were 36 nM and 2.4 nM, respectively.

Turning to `CS(=O)(=O)c1cc(Br)c2c(c1)c1c(n2Cc2ccc3ccc(Cl)cc3n2)C(CC(=O)O)CC1` (stereo not drawn), the Ki in assay [1] turned out to be 1 nM; at Thromboxane A2 receptor, 180 nM.

Consider `C=Cc1cc(S(C)(=O)=O)cc2c3c(n(Cc4ccc(Cl)cc4)c12)C(CC(=O)O)CC3` (stereo not drawn), for which the Ki in assay [1] was 3.6 nM; on Thromboxane A2 receptor, 520 nM.

In the case of `CS(=O)(=O)c1cc(-c2cccs2)c2c(c1)c1c(n2Cc2ccc(Cl)cc2)C(CC(=O)O)CC1` (stereo not drawn), the Ki amounted to 4.5 nM in assay [1] and 730 nM on Thromboxane A2 receptor.

Turning to `CS(=O)(=O)c1cc(Br)c2c(c1)c1c(n2Cc2ccc3sc(Cl)c(Cl)c3n2)C(CC(=O)O)CC1` (stereo not drawn), the Ki stood at 4.4 nM in assay [1] and 220 nM on Thromboxane A2 receptor.

On to `CN(C)C(=O)c1cccc2c3c(n(Cc4ccc(Cl)cc4)c12)C(CC(=O)O)CCC3` (stereo not drawn), for which the Ki came to 28 nM in assay [1] and 3700 nM on Thromboxane A2 receptor.

At Thromboxane A2 receptor, `C[S+]([O-])c1cccc2c3c(n(Cc4ccc(Cl)cc4)c12)[C@@H](CC(=O)O)CCC3` (single isomer, unassigned; 16) showed a Ki of 130 nM.

As to `O=C(O)CC1CCCc2c1n(Cc1ccc(Cl)cc1)c1c(CO)cccc21` (stereo not drawn), the Ki is 16 nM in [1] and 7.8 nM at Thromboxane A2 receptor.

As to `O=C(O)CC1CCCc2c1n(Cc1ccc(Cl)cc1)c1c(F)cc(F)cc21` (stereo not drawn), the Ki is > 4600 nM in assay [2]; > 300 nM in assay [3]; > 2900 nM in [4]; > 20000 nM in assay [5]; > 2000 nM at Prostacyclin receptor; 11 nM in assay [1]. In addition, the Ki at Thromboxane A2 receptor is 1.7 nM; in [8], > 7000 nM.

For the compound `CS(=O)(=O)c1cccc2c3c(n(Cc4ccc(Cl)cc4)c12)C(CC(=O)O)CCC3` (stereo not drawn), the Ki in assay [1] worked out at 1.9 nM; on Thromboxane A2 receptor, 5.1 nM.

In the case of `CS(=O)(=O)c1cc(Br)c2c(c1)c1c(n2Cc2cccc(Cl)c2)C(CC(=O)O)CC1` (stereo not drawn), the Ki in [1] is 3.5 nM; on Thromboxane A2 receptor it was 760 nM.

For `CC(C)(C)c1ccc(Cn2c3c(c4cc(S(C)(=O)=O)cc(Br)c42)CCC3CC(=O)O)cc1` (stereo not drawn), the Ki in assay [1] was found to be 7.5 nM; at Thromboxane A2 receptor, 820 nM.

Take `CS(=O)(=O)c1cc(Br)c2c(c1)c1c(n2Cc2ccc(Cl)cc2)C(CC(=O)O)CC1` (stereo not drawn): the Ki was determined as 1.7 nM in assay [1] and 200 nM at Thromboxane A2 receptor.

With `CN(C)S(=O)(=O)c1cc(Br)c2c(c1)c1c(n2Cc2ccc(Cl)cc2)C(CC(=O)O)CC1` (stereo not drawn), the Ki came out at 4.1 nM in assay [1] and 100 nM on Thromboxane A2 receptor.

With `CC(C)c1cccc2c3c(n(Cc4ccc(Cl)cc4)c12)C(CC(=O)O)CCC3` (stereo not drawn), the Ki in assay [1] amounted to 1.7 nM; at Thromboxane A2 receptor it was 9.1 nM.

Take `CC(=O)c1cc(S(C)(=O)=O)cc2c3c(n(Cc4ccc(Cl)cc4)c12)[C@@H](CC(=O)O)CC3`: the Ki in assay [2] is 230 nM; in [3], > 20000 nM; in assay [4] it was > 20000 nM; in assay [5] it was > 20000 nM; at Prostacyclin receptor, > 20000 nM; in assay [1], 2.6 nM. In addition, the Ki at Thromboxane A2 receptor was 1200 nM; in assay [8] it was > 20000 nM. The IC50 is 2 nM in [6] and 7.9 nM in assay [7].

Turning to `CS(=O)(=O)c1cc(Br)c2c(c1)c1c(n2Cc2cccc(OC(F)(F)F)c2)C(CC(=O)O)CC1` (stereo not drawn), the Ki stood at 4.1 nM in [1] and 260 nM on Thromboxane A2 receptor.

Take `CS(=O)(=O)c1ccc2c(c1)c1c(n2Cc2ccc(Cl)cc2)C(CC(=O)O)CCC1` (stereo not drawn): the Ki came to 80 nM in assay [1] and 990 nM at Thromboxane A2 receptor.

For `CS(=O)(=O)c1cc(C#N)c2c(c1)c1c(n2Cc2ccc(Cl)cc2)C(CC(=O)O)CC1` (stereo not drawn), the Ki in assay [1] was 9.7 nM; at Thromboxane A2 receptor, 1100 nM.

With `C[S+]([O-])c1cccc2c3c(n(Cc4ccc(Cl)cc4)c12)[C@@H](CC(=O)O)CCC3` (single isomer, unassigned; 17), the Ki stood at 1.8 nM in assay [1] and 47 nM on Thromboxane A2 receptor.

The values above are taken from ChEMBL document CHEMBL1148660, “Identification of an indole series of prostaglandin D2 receptor antagonists” (Bioorg Med Chem Lett, 2006).
